Results: ChEMBL document CHEMBL3217688, “Structure-based design, synthesis, and profiling of potent and selective neuronal nitric oxide synthase (nNOS) inhibitors with an amidinothiophene hydroxypiperidine scaffold” (Medchemcomm, 2011)
pIC50: −log10 of the molar value.

Key:
Nitric oxide synthase 1 = Nitric oxide synthase 1 (Rattus norvegicus, UniProt P29476); experiment: Inhibition of recombinant rat nNOS assessed as conversion of L-arginine to citrulline after 30 mins
[1] = Drug metabolism in human liver microsomes after 20 mins; assay type: ADME; settings: read-out: Drug metabolism
[2] = Selectivity ratio of IC50 for eNOS (unknown origin) to IC50 for recombinant rat nNOS
Nitric oxide synthase 3 = Nitric oxide synthase 3 (Homo sapiens, UniProt P29474); experiment: Inhibition of eNOS (unknown origin)
Chain of Nitric oxide synthase 3 (P29474 whole entry, looked up): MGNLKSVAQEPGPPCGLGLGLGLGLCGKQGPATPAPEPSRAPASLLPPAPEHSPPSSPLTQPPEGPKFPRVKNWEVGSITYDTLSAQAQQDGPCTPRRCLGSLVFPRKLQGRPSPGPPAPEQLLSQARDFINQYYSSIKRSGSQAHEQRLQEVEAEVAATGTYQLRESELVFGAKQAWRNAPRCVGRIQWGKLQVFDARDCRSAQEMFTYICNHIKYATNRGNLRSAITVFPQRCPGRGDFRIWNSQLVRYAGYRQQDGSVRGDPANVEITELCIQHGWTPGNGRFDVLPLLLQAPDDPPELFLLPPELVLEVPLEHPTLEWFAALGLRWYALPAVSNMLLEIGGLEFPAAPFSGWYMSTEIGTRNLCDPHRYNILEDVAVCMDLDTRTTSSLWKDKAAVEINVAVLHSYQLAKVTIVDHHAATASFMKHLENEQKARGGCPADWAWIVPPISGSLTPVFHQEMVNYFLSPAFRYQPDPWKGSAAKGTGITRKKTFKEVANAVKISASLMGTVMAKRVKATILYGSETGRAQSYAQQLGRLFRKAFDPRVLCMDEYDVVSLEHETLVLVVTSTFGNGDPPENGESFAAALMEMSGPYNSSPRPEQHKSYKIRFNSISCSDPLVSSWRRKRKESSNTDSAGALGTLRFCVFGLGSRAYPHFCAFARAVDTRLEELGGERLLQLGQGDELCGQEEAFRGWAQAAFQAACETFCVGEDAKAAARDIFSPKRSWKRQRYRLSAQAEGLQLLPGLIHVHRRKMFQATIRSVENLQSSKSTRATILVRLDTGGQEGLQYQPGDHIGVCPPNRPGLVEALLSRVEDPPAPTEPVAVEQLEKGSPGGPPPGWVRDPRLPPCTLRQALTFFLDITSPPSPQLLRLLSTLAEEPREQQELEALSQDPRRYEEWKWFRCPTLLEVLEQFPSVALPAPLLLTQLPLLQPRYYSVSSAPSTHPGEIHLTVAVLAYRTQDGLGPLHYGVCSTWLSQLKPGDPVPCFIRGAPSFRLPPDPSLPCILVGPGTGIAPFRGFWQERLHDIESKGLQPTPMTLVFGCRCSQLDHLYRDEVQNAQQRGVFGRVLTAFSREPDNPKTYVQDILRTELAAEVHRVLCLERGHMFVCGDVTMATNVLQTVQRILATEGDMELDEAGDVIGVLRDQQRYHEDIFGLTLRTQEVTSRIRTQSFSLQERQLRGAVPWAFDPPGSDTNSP

Chain of Nitric oxide synthase 1 (P29476 whole entry): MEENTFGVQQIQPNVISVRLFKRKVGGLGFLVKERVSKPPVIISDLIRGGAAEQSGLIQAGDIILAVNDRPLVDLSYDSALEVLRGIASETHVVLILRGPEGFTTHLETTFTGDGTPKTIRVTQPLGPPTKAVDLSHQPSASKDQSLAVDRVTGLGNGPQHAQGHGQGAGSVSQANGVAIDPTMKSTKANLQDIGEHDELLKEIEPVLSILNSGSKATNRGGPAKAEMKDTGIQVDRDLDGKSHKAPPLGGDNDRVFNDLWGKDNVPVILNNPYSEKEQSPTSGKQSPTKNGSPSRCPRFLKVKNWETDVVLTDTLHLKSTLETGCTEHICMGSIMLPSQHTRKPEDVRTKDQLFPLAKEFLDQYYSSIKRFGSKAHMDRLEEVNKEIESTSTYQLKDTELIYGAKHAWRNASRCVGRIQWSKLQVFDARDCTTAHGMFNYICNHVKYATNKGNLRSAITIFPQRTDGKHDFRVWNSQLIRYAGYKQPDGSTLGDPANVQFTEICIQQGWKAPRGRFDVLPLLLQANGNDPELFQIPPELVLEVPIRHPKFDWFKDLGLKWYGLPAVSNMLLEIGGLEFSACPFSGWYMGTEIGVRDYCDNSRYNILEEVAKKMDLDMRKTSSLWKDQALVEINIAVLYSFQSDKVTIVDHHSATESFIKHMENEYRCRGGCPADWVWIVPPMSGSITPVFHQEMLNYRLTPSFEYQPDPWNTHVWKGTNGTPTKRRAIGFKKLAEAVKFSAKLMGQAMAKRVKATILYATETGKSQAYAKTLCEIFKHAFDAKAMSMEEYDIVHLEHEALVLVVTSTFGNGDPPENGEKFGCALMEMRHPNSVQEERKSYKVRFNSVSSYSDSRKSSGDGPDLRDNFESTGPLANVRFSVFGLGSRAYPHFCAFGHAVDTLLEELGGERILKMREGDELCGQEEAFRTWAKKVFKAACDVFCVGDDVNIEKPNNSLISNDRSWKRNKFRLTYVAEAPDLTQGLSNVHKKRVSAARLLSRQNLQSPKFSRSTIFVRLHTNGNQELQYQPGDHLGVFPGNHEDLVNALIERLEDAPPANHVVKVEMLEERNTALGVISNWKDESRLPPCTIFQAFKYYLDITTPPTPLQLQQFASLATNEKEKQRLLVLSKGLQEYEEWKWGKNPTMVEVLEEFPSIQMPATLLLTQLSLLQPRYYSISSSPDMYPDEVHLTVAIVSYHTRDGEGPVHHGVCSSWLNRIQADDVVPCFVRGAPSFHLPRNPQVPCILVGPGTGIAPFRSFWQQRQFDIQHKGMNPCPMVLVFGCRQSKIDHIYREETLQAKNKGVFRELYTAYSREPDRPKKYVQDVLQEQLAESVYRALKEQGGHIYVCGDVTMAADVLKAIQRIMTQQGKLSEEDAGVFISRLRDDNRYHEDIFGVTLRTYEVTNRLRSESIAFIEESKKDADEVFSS

SMILES	pIC50 (Nitric oxide synthase 1)	metabolised at 20 min [1] [%]	Ratio IC50 [2]	pIC50 (Nitric oxide synthase 3)
N=C(Nc1cccc(C2(O)CCN(CCc3cccc(Cl)c3Cl)CC2)c1)c1cccs1	6.89	23	775	4.00
N=C(Nc1cccc(C2(O)CCN(CCc3cccc(Cl)c3)CC2)c1)c1cccs1	6.88	39	438	4.24
N=C(Nc1cccc(C2(O)CCN(CCc3ccc(Cl)c(Cl)c3)CC2)c1)c1cccs1	7.77	32	1660	4.55

Next, values leading:

pIC50 (Nitric oxide synthase 1)	metabolised at 20 min [1] [%]	Ratio IC50 [2]	pIC50 (Nitric oxide synthase 3)	SMILES
6.16	54	14	5.00	CCCCNC(=O)N1CCC(O)(c2cccc(NC(=N)c3cccs3)c2)CC1
6.15	25	26	4.74	CCCS(=O)(=O)N1CCC(O)(c2cccc(NC(=N)c3cccs3)c2)CC1
6.26	16	42	4.64	CC(C)S(=O)(=O)N1CCC(O)(c2cccc(NC(=N)c3cccs3)c2)CC1
6.42	77	159	4.22	N=C(Nc1cccc(C2(O)CCN(C(=O)OCc3ccccc3)CC2)c1)c1cccs1
